Patent publication US20030224469A1, “Methods and kits for assays utilizing fluorescence polarization” (priority 2002, published 2003)
Like-named read-outs stand apart in the source and are kept apart here.

Experiments:
[1] = target: T1, T-Cell Protein Tyrosine Phosphatase (TC PTP) (Homo sapiens, UniProt P17706); assay: FP-based protein tyrosine phosphatase assay (dual color); format: biochemical
T1 construct: purchased New England Biolabs
T1 sequence (P17706 1-317 limits assumed): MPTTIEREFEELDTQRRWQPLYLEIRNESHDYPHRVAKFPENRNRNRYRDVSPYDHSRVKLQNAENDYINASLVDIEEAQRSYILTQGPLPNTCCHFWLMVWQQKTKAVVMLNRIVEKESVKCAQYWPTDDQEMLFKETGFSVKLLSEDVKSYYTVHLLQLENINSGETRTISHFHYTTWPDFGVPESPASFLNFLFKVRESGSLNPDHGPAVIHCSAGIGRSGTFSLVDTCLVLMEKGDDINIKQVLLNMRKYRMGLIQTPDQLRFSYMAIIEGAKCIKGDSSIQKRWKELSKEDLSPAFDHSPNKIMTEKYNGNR
Protocol: The enzymatic activity of T-Cell Protein Tyrosine Phosphatase (TC PTP) was measured in a dose-dependent manner by incubating different concentrations of TC PTP (New England Biolabs; Beverly, Mass.), from 0.05 U/μL to 0.0005 U/μL, with 50 μL of a mixture of an anti-phosphotyrosine antibody, a fluorescein-labeled phosphopeptide and a tetramethylrhodamine-labeled phosphopeptides. The final reaction volume was […]. Two control assays were performed. […] Fluorescence polarization measurements were performed using the appropriate excitation and emission filters appropriate for each fluorophore. Increasing concentrations of TC PTP result in an increased rate of dephosphorylation of the labeled phosphopeptides, which is indicated by a decrease in polarization (due to the inability of the dephosphorylated peptide to bind to the antibody).
In a black, 96-well plate (DYNEX; Chantilly, Va.), Na3VO4 (Sigma; St. Louis, Mo.) was serially diluted 2-fold into 24 wells from a starting concentration of 500 nM in a volume of 50 μL. TC PTP was then added to each well so that the final concentration of the enzyme would be 0.005 U/μL per assay. […] At the end of the incubation, 10 μL of 550 μM Na3VO4 was added to quench all of the reactions, and the polarization for each sample was measured on a TECAN Polarion using the appropriate excitation and emission filters appropriate for each fluorophore. […]

[2] = target: glucocorticoid receptor (GR) (Homo sapiens, UniProt P04150)
Chain of glucocorticoid receptor (GR) (P04150 whole entry, species assumed): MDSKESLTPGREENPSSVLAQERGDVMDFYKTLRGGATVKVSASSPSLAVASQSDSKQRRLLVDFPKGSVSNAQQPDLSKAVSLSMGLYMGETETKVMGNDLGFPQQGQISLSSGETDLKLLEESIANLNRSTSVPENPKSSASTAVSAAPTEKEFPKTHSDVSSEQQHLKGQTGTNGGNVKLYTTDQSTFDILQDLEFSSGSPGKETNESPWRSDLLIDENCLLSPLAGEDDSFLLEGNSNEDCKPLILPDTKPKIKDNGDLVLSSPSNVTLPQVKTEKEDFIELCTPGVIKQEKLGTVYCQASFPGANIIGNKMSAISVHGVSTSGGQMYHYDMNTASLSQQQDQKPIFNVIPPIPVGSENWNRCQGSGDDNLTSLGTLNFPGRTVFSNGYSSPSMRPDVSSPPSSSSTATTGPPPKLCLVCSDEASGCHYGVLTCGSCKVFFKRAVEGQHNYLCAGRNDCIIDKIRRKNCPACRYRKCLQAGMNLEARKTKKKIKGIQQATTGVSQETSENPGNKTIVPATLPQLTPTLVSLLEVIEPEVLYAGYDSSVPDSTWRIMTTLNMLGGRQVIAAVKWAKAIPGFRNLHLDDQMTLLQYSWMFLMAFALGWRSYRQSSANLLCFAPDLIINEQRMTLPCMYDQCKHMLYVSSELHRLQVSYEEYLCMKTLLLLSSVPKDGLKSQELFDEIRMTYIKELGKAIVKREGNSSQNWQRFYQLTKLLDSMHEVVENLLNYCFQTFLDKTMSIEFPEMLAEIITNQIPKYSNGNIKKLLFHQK
Protocol: A non-labeled steroid (dexamethasone) was serially diluted in 10 mM potassium phosphate pH 7.4,20 mM Na2MoO4, 2% DMSO, 0.1 mM EDTA, 0.5 mM DTT buffer containing 0.1 mM stabilizing peptide. This steroid was used as a competitive binder to glucocorticoid receptor (GR). […] Control wells were also prepared without either unconjugated fluorescein or TMR present. As in Examples 1 and 2, two separate fluorescence polarization values were obtained for each sample using a green filter or a red filter.

Row | inhibition of TC PTP-dependent change in polarization ([1]; 50 μM Na3VO4) | IC50 ([1]; TC PTP 0.005 U/μL, 15 minutes incubation, nonlinear regression of semi-log plot) | fluorescence polarization ([2]; high concentrations of steroid competitor) | fluorescence polarization ([2]; low concentration of competitor) | Compound
1 | completely inhibited | 4 nM | – | – | [Na+].[Na+].[Na+].[O]=[V]([O-])([O-])[O-] [Na3VO4]
2 | – | – | about 60 mP | ~260 mP | dexamethasone [steroid competitor]
